Test results taken from the NIST ThermoML archive (doi:10.1016/j.jct.2015.04.027).
± gives the expanded uncertainty stated by the source.

What was measured:
[1] = 100 kPa, Liquid; for viscosity: Falling or rolling sphere viscometry; for mass density: Vibrating tube method
[2] = xn = mol fraction of the nth substance listed; settings: 100 kPa, Liquid, x2 = 0; for viscosity: Falling or rolling sphere viscometry; for mass density: Vibrating tube method

Row | Structure (SMILES) | viscosity ([1]; 293.15 K) | mass density ([1]; 293.15 K) | viscosity ([1]; 298.15 K) | mass density ([1]; 298.15 K) | viscosity ([1]; 303.15 K) | mass density ([1]; 303.15 K) | viscosity ([1]; 308.15 K) | mass density ([1]; 308.15 K) | viscosity ([1]; 313.15 K) | mass density ([1]; 313.15 K) | viscosity ([2]; 293.15 K) | mass density ([2]; 293.15 K) | viscosity ([2]; 298.15 K) | mass density ([2]; 298.15 K) | viscosity ([2]; 303.15 K) | mass density ([2]; 303.15 K) | viscosity ([2]; 308.15 K) | mass density ([2]; 308.15 K) | viscosity ([2]; 313.15 K) | mass density ([2]; 313.15 K)
1 | CN(C)C(=[NH2+])N(C)C.c1c[n-]cn1 [1,1,3,3-tetramethylguanidinium imidazol-1-ide] | 8.952 ± 0.2 mPa·s | 997.25 ± 0.25 kg/m3 | 7.287 ± 0.16 mPa·s | 992.8 ± 0.25 kg/m3 | 6.044 ± 0.13 mPa·s | 988.35 ± 0.25 kg/m3 | 5.097 ± 0.11 mPa·s | 983.9 ± 0.25 kg/m3 | 4.358 ± 0.096 mPa·s | 979.46 ± 0.25 kg/m3 |  |  |  |  |  |  |  |  |  | 
2 | CCCCO [butan-1-ol] | 2.918 ± 0.062 mPa·s | 809.72 ± 0.16 kg/m3 | 2.566 ± 0.055 mPa·s | 805.92 ± 0.16 kg/m3 | 2.272 ± 0.049 mPa·s | 802.08 ± 0.16 kg/m3 | 2.024 ± 0.043 mPa·s | 798.21 ± 0.16 kg/m3 | 1.81 ± 0.039 mPa·s | 794.3 ± 0.17 kg/m3 |  |  |  |  |  |  |  |  |  | 
3 | CO [methanol] | 0.597 ± 0.013 mPa·s | 791.35 ± 0.17 kg/m3 | 0.559 ± 0.012 mPa·s | 786.67 ± 0.18 kg/m3 | 0.518 ± 0.011 mPa·s | 781.94 ± 0.18 kg/m3 | 0.493 ± 0.011 mPa·s | 777.2 ± 0.18 kg/m3 | 0.466 ± 0.01 mPa·s | 772.42 ± 0.18 kg/m3 |  |  |  |  |  |  |  |  |  | 
4 | CO [methanol] + CN(C)C(=[NH2+])N(C)C.c1c[n-]cn1 |  |  |  |  |  |  |  |  |  |  | 0.597 ± 0.013 mPa·s | 791.35 ± 0.17 kg/m3 | 0.559 ± 0.012 mPa·s | 786.67 ± 0.18 kg/m3 | 0.518 ± 0.011 mPa·s | 781.94 ± 0.18 kg/m3 | 0.493 ± 0.011 mPa·s | 777.2 ± 0.18 kg/m3 | 0.466 ± 0.01 mPa·s | 772.42 ± 0.18 kg/m3

Continued, values first:

Row | viscosity ([1]; 293.15 K) | mass density ([1]; 293.15 K) | viscosity ([1]; 298.15 K) | mass density ([1]; 298.15 K) | viscosity ([1]; 303.15 K) | mass density ([1]; 303.15 K) | viscosity ([1]; 308.15 K) | mass density ([1]; 308.15 K) | viscosity ([1]; 313.15 K) | mass density ([1]; 313.15 K) | viscosity ([2]; 293.15 K) | mass density ([2]; 293.15 K) | viscosity ([2]; 298.15 K) | mass density ([2]; 298.15 K) | viscosity ([2]; 303.15 K) | mass density ([2]; 303.15 K) | viscosity ([2]; 308.15 K) | mass density ([2]; 308.15 K) | viscosity ([2]; 313.15 K) | mass density ([2]; 313.15 K) | Structure (SMILES)
5 |  |  |  |  |  |  |  |  |  |  | 2.918 ± 0.062 mPa·s | 809.72 ± 0.16 kg/m3 | 2.566 ± 0.055 mPa·s | 805.92 ± 0.16 kg/m3 | 2.272 ± 0.049 mPa·s | 802.08 ± 0.16 kg/m3 | 2.024 ± 0.043 mPa·s | 798.21 ± 0.16 kg/m3 | 1.81 ± 0.039 mPa·s | 794.3 ± 0.17 kg/m3 | CCCCO [butan-1-ol] + CN(C)C(=[NH2+])N(C)C.c1c[n-]cn1
6 | 1.186 ± 0.025 mPa·s | 789.51 ± 0.17 kg/m3 | 1.083 ± 0.023 mPa·s | 785.4 ± 0.17 kg/m3 | 0.987 ± 0.021 mPa·s | 780.83 ± 0.17 kg/m3 | 0.903 ± 0.019 mPa·s | 776.48 ± 0.17 kg/m3 | 0.829 ± 0.018 mPa·s | 772.15 ± 0.17 kg/m3 |  |  |  |  |  |  |  |  |  |  | CCO [ethanol]
7 |  |  |  |  |  |  |  |  |  |  | 1.186 ± 0.025 mPa·s | 789.51 ± 0.17 kg/m3 | 1.083 ± 0.023 mPa·s | 785.4 ± 0.17 kg/m3 | 0.987 ± 0.021 mPa·s | 780.83 ± 0.17 kg/m3 | 0.903 ± 0.019 mPa·s | 776.48 ± 0.17 kg/m3 | 0.829 ± 0.018 mPa·s | 772.15 ± 0.17 kg/m3 | CCO [ethanol] + CN(C)C(=[NH2+])N(C)C.c1c[n-]cn1
8 | 2.217 ± 0.047 mPa·s | 803.75 ± 0.16 kg/m3 | 1.955 ± 0.042 mPa·s | 799.71 ± 0.17 kg/m3 | 1.736 ± 0.037 mPa·s | 795.65 ± 0.17 kg/m3 | 1.55 ± 0.033 mPa·s | 791.56 ± 0.17 kg/m3 | 1.389 ± 0.03 mPa·s | 787.42 ± 0.17 kg/m3 |  |  |  |  |  |  |  |  |  |  | CCCO [propan-1-ol]
9 |  |  |  |  |  |  |  |  |  |  | 2.217 ± 0.047 mPa·s | 803.75 ± 0.16 kg/m3 | 1.955 ± 0.042 mPa·s | 799.71 ± 0.17 kg/m3 | 1.736 ± 0.037 mPa·s | 795.65 ± 0.17 kg/m3 | 1.55 ± 0.033 mPa·s | 791.56 ± 0.17 kg/m3 | 1.389 ± 0.03 mPa·s | 787.42 ± 0.17 kg/m3 | CCCO [propan-1-ol] + CN(C)C(=[NH2+])N(C)C.c1c[n-]cn1
